Assay results reported in patent publication US9079880B2, “Rho kinase inhibitors” (Boehringer Ingelheim International GmbH, priority 2010, dated 2015).

How the values were obtained:
ROCKII (1-543) [1] = target: T1, ROCKII (1-543) (Homo sapiens (Human), UniProt O75116); test: IMAP Assay (fluorescence polarization, FAM S6 peptide); assay type: biochemical; details: 100 μM ATP, 200 nM FAM S6 peptide, 1 nM kinase; read-out: Assay 2 IC50
Experimental: This assay is performed using FAM S6 substrate peptide (Catalogue #R7184) and IMAP FP Screening Express Kit detection reagents from Molecular Devices (Sunnyvale, Calif.) in IMAP kinase reaction buffer (Tris-HCl, pH 7.2, 10 mM MgCl2, 0.05% NaN3, 0.1% phosphate-free BSA) containing 1 mM DTT. Test compounds dissolved in neat DMSO at 0.3 mg/mL are serially diluted 1 to 3 for concentration response in 100% DMSO. The DMSO serial dilutions are further diluted 33.33-fold in kinase reaction buffer, and 10 μL of this buffer dilution is transferred to Corning black 96-well half area NBS plates for a final top concentration of 3 μg/mL in 1% DMSO. 10 μL aliquot of 3 nM ROCKII (1-543) diluted in kinase reaction buffer is added to each assay well for a final concentration of 1 nM kinase. 10 μL of a mixture of 600 nM FAM S6 peptide and 300 μM ATP diluted in kinase reaction buffer is added to each well for a final concentration of 200 nM peptide and 100 μM ATP. The kinase reaction mixture is incubated for 60 minutes at room temperature. Positive controls are reaction mixtures containing no test compound and negative controls (blanks) are reaction mixtures containing no kinase. The kinase reaction is stopped by addition of 60 μL IMAP progressive binding reagent (Catalog #R7284) diluted 400-fold in 1× Binding buffer A. After 30 min of incubation at room temperature, the plates are read for fluorescence polarization on Analyst Plate Reader using Ex 485 nm, Em 530 nm, and FL 505 dichroic mirror. The mP signals are converted to percent of control (POC) values using the formula: POC=100*(Signal−BCTRL)÷(PCTRL−BCTRL)
Where Signal is the test well signal, BCTRL is the average of background (negative control) well signals on the plate and PCTRL is the average of positive control well signals on the plate. For the concentration-responsive compounds, POC as a function of test compound concentration is fitted to a 4-parameter logistic equation of the form: Y=A+(B−A)/[1+(x/C)D] Where A, B, C, and D are fitted parameters (parameter B is fixed at zero POC), and x and y are the independent and dependent variables, respectively. The IC50 is determined as the inflection point parameter, C.
Target sequence in this assay (O75116 1-543, species assumed): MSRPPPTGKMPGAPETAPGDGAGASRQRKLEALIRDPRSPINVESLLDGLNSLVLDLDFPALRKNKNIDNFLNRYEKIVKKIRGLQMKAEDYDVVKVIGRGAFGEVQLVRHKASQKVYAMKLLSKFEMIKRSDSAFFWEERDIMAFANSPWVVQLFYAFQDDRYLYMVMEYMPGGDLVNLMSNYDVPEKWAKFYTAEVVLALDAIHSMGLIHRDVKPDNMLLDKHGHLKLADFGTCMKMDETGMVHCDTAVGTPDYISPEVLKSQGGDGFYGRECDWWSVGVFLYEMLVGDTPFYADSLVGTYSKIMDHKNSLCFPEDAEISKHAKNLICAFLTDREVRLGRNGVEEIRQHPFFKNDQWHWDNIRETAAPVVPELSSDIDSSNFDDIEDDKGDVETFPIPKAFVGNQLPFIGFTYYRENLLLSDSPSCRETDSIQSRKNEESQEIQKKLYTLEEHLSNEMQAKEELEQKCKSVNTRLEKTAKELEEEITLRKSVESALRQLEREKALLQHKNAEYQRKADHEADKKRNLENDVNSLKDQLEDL

ROCKII (1-543) [2] = target: T1, ROCKII (1-543); test: Luciferin-Luciferase Assay (PKLight ATP detection); assay type: biochemical; details: 750 nM ATP, 500 nM peptide, 7.5 nM kinase
Experimental: 1. Luciferin-Luciferase Assay
The activity of ROCKII (1-543) kinase was measured utilizing Cambrex PKLight ATP Detection Reagent, a homogeneous assay technology using luciferin-luciferase to quantify residual ATP. The assay was performed in 384-well low-volume, white, non-binding surface microtiter plates (Corning). The assay buffer was 25 mM HEPES, pH 7.5, 10 mM MgCl2, 50 mM KCl, 0.2% BSA, 0.01% CHAPS, 100 μM Na3VO4 and 0.5 mM DTT. Test compounds, dissolved in neat DMSO at 500 μg/mL, were serially diluted for dose response for a final starting concentration of 3 μg/mL in 1% DMSO of assay buffer. ROCKII (1-543) (62,408Da) was diluted in assay buffer to a final concentration of 7.5 nM in a total volume of 15 μL. Positive controls were reaction mixtures containing no test compound; negative controls (blanks) were reaction mixtures containing no kinase. After 15 minutes of pre-incubation of the test compounds with the kinase, a mixture of ATP and peptide substrate ([…]) in assay buffer was added to each well for a final concentration of 750 nM ATP and 500 nM peptide, respectively. After 90 minutes of incubation of the kinase reaction at 28° C. temperature, 10 μL of PKLight ATP Detection Reagent (warmed to room temperature previously) was added to each well. The assay plate was incubated at room temperature for additional 15 minutes and then read on an Analyst in luminescence mode. Dose-response experiments for each of the test compounds were conducted in quadruplet. IC50 values of test compounds represent 50% response of the positive control from the dose-response curve.
Target sequence in this assay (O75116 1-543): as the sequence (O75116 1-543, species assumed) above

[3] = test system: spontaneously hypertensive rat, renal hypertensive rat and deoxycortisone acetate salt hypertensive rat models; details: cited from earlier work
Dahl salt-sensitive rats = details: rat, in vivo; cited from earlier work
[4] = test system: neointimal formation in rats; details: cited from earlier work
rat stroke model = details: in vivo; cited from earlier work
[5] = test system: IL-1 beta-induced coronary stenosis; details: long term treatment; cited from earlier work

SMILES | IC50 (ROCKII (1-543) [1]) [nM] | IC50 (ROCKII (1-543) [2]) [nM] | further results
N#Cc1cccc2c1CCN2C(=O)N1CCC[C@@H]1c1cccc(C(=O)Nc2nc3c(s2)C[C@@H](N2CCOCC2)CC3)c1 [Compound 110] | 2.9 | 2.9 | –
O=C(Nc1nc2c(s1)C[C@@H](N1CCOCC1)CC2)c1cccc([C@H]2CCCN2C(=O)c2ccc(-c3cnco3)cc2)c1 [Compound 118] | 6.9 | 2.5 | –
O=C(Nc1nc2c(s1)C[C@@H](N1CCOCC1)CC2)c1cccc([C@H]2CCCN2C(=O)c2csc(-c3ccncc3)n2)c1 [Compound 120] | 7.9 | 3.2 | –
O=C(Nc1nc2c(s1)C[C@@H](N1CCOCC1)CC2)c1cccc([C@H]2CCCN2C(=O)c2ccc(-n3ccnc3)cc2)c1 [Compound 122] | 8.3 | 3.5 | –
O=C(Nc1nc2c(s1)C[C@@H](N1CCOCC1)CC2)c1cccc([C@H]2CCCN2C(=O)c2ccc3cc(O)ccc3c2)c1 [Compound 130] | 6.3 | 2.5 | –
O=C(Nc1nc2c(s1)C[C@@H](N1CCOCC1)CC2)c1cccc([C@H]2CCCN2C(=O)c2ccc(-c3ccncc3)cc2)c1 [Compound 132] | 17 | 2.6 | –
Nc1nonc1-n1nnc(C(=O)N2CCC[C@@H]2c2cccc(C(=O)Nc3nc4c(s3)C[C@@H](N3CCOCC3)CC4)c2)c1-c1ccccc1 [Compound 134] | 30 | 2.7 | –
O=C(Nc1nc2c(s1)C[C@@H](N1CCOCC1)CC2)c1cccc([C@H]2CCCN2C(=O)c2csc(-c3cccnc3)n2)c1 [Compound 136] | 6.9 | 2.6 | –
O=C(Nc1nc2c(s1)C[C@@H](N1CCOCC1)CC2)c1cccc([C@H]2CCCN2C(=O)c2cccc(-c3cn[nH]c3)c2)c1 [Compound 140] | 4.9 | 2.5 | –
CN1CCc2nc(NC(=O)c3cccc([C@H]4CCCN4C(=O)c4cn5ccc(C#N)cc5n4)c3)sc2C1 [Compound 148, 3-[(R)-1-(7-Cyano-imidazo[1,2-a]pyridine-2-carbonyl)-pyrrolidin-2-yl]-N-(5-methyl-4,5,6,7-tetrahydro-thiazolo[5,4-c]pyridin-2-yl)-benzamide] | 12 | 2.9 | –
N#Cc1ccc(NC(=O)COc2cccc(C(=O)Nc3nc4c(s3)CC(N3CCN(C5CC5)CC3)CC4)c2)cc1 (stereo not drawn) [Compound 152] | 24 | 6.1 | –
CN1CCN(C2CCc3nc(NC(=O)c4cccc(OCC(=O)Nc5ccc(C#N)cc5)c4)sc3C2)CC1 (stereo not drawn) [Compound 154] | 33 | 6.5 | –
C[C@@H](N)[C@H]1CC[C@H](C(=O)Nc2ccncc2)CC1 [Compound Y-27632, Y-27632] | – | – | blood pressure in control rats ([3]; control rats): only a minor effect on blood pressure; blood pressure in three rat models of hypertension ([3]; hypertensive rats): significantly decrease blood pressure; ventricular hypertrophy and function (Dahl salt-sensitive rats): improve ventricular hypertrophy and function; neointimal formation [4]: inhibited neointimal formation
O=S(=O)(c1cccc2cnccc12)N1CCCNCC1 [fasudil] | – | – | infarct size and neurologic deficit (rat stroke model): reduce both the infarct size and neurologic deficit; coronary constrictive remodeling [5]: promote a regression of coronary constrictive remodeling; coronary stenosis [5]: progressively reduce coronary stenosis

Continued, in another order:

IC50 (ROCKII (1-543) [1]) [nM] | IC50 (ROCKII (1-543) [2]) [nM] | SMILES | further results
3.6 | 2.3 | CN(C)[C@H]1CCc2nc(NC(=O)c3cccc([C@H]4CCCN4C(=O)c4ccc5[nH]c(=O)ccc5c4)c3)sc2C1 [Compound 108] | –
6.8 | 3.6 | COc1ccc(C(=O)N2CCC[C@@H]2c2cccc(C(=O)Nc3nc4c(s3)C[C@@H](N3CCOCC3)CC4)c2)cc1OC [Compound 112] | –
9.7 | 7.8 | COc1ccc(C(=O)N2CCC[C@@H]2c2cccc(C(=O)Nc3nc4c(s3)C[C@@H](N3CCOCC3)CC4)c2)cc1C [Compound 116] | –
6.7 | 2.3 | NC(=O)c1ccc2nc(C(=O)N3CCC[C@@H]3c3cccc(C(=O)Nc4nc5c(s4)C[C@@H](N4CCOCC4)CC5)c3)cn2c1 [Compound 124] | –
7 | 2.7 | O=C(Nc1nc2c(s1)C[C@@H](N1CCOCC1)CC2)c1cccc([C@H]2CCCN2C(=O)c2ccc3[nH]c(=O)ccc3c2)c1 [Compound 126] | –
29 | 3.6 | Cc1nc(-c2ccncc2)sc1C(=O)N1CCC[C@@H]1c1cccc(C(=O)Nc2nc3c(s2)C[C@@H](N2CCOCC2)CC3)c1 [Compound 128] | –
31 | 7.2 | COCCN(C)C1CCc2nc(NC(=O)c3cccc(OCC(=O)Nc4ccc(C#N)cc4)c3)sc2C1 (stereo not drawn) [Compound 156] | –
